The test system of one data set is male C57/BL6 mice. Nature of the data set: Mouse basal locomotor activity. In kind it is in vivo. Particulars: po. The procedure:
To measure basal locomotor activity, male C57/BL6 mice (8-16 weeks) (Jackson Laboratories, Sacramento, Calif.) were transferred in home cages to the testing room approximately 60 minutes prior to testing. Approximately 15 minutes after arrival in the testing room, a dark cycle commenced, with lights turning off and infrared lights turning on for experimenter visibility. Thirty minutes after the lights were turned off, animals were individually weighed and administered either vehicle (20% hydroxypropyl-β-cyclodextrin) Compound 13 (1, 2, 5, 10, or 20 mg/kg P.O.), or another GPR52 agonist (10 mg/kg P.O.) and returned to home cages. Fifteen minutes later, mice were placed into locomotor cages and activity was recorded for 60 minutes.

Data set [1] concerns male Sprague-Dawley rats. The data set is described as follows: Amphetamine-stimulated locomotor activity in rats. It is filed as in vivo, rat. The note with it: 0.5, 1, 2, 5, 10, and 20 mg/kg P.O., amphetamine 0.5 mg/kg SC, FIG. 24. How it is done:
Fifteen minutes later, rats were injected with amphetamine (0.5 mg/kg SC in volume of 1 mL/kg). Activity was then measured for 90 minutes.

The subject of data set [2] is male Sprague-Dawley rats. Nature of the data set: Prepulse inhibition of the startle response in rats. Particulars: 5 or 20 mg/kg P.O., FIGS. 26A-B. It is filed as in vivo, rat. How it is done:
Prepulse inhibition testing was conducted in enclosed startle chambers (Kinder Scientific StartleMonitor System, Kinder Scientific, Poway, Calif.) in which animals were placed into restrainers secured onto startle-sensing plates. A constant background white noise of 65 dB was audible in the chambers throughout testing. […]
For each animal, mean startle amplitude for each trial type during the 35-trial block was calculated, and percent prepulse inhibition (% PPI) for each prepulse intensity was calculated as the percent decrease in the mean startle amplitude in response to a given prepulse and 120 dB startle stimulus relative to the mean startle amplitude in response to the 120 dB startle stimulus alone. The % PPI was then calculated for each animal as the mean % PPI across all four prepulse intensities. […]

The test system of the next data set is male Sprague Dawley rats. Nature of the data set: Plasma prolactin levels in rats (ELISA). It is filed as in vivo, rat. How it is done: Another unwanted side effect of certain antipsychotics is hyperprolactinemia. To examine prolactin levels following the administration of a GPR52 agonist, male Sprague Dawley rats (Harlan Laboratories, San Diego, Calif.) were single-housed, handled, and moved to a private housing room one week prior to testing. Rats were individually handled and sham dosed P.O. for four days prior to testing. For an assessment of haloperidol (0.1 and 1 mg/kg P.O.) and Compound 13 (1, 10, and 100 mg/kg P.O.) on basal prolactin release, rats were dosed with acidic 20% HP-β-cyclodextrin (HBCD) or compound at 3 mL/kg P.O. in their housing room 60 minutes prior to harvest. For interaction studies, rats were dosed with 20% HBCD or Compound 13 (10 mg/kg P.O.) 90 minutes prior to harvest, and additionally with 20% HBCD vehicle or haloperidol (0.3 and 1 mg/kg P.O.) 60 minutes prior to harvest. Rats were individually taken to the harvest room, and trunk blood was collected into 4 mL EDTA tubes following live decapitation. Samples were stored on wet ice until collection was complete, then spun in a cooling centrifuge at 2400 rpm for 20 minutes. Plasma was collected and frozen for subsequent analysis using a Rat Prolactin ELISA kit (ALPCO Diagnostics: Cat#55-PRLRT-E01).
Briefly, frozen plasma was thawed on ice and mixed prior to initiation of the ELISA. Twenty-five microliters of sample plasma along with serially diluted standards (lyophilized purified rat prolactin diluted with rat prolactin calibrator/sample diluent), and calibrator/sample diluent used as a blank were placed in a 96-well plate provided with the ELISA kit. Samples, blank, and standards were measured in duplicate. […] Fifty microliters of stop solution (2M hydrochloric acid) was added to the wells prior to reading on a 96-well plate reader (SpectraMax® 340PC; Molecular Devices, Sunnyvale, Calif.) at […]. The quantity of prolactin in each sample was calculated using a standard curve.
(In general: ELISA stands for enzyme-linked immunosorbent assay.)

Data set [3] can be described thus: Brain penetration (plasma and brain exposure). Particulars: PO dose 3 mg/kg; male C57BL6 mice; 60 minute time point. In kind it is in vivo, mouse. The procedure:
Plasma and brain exposure were evaluated to determine the brain penetration of compounds described herein. Male C57BL6 mice were administered a single per oral (PO) dose of compound at 3 or 10 mg/kg (as a free base) formulated in 20% HPCD in 0.9% NaCl. Blood and brain samples were collected 60 minutes post-dose (n=3-6 animals). Blood was collected via cardiac puncture and stored on ice prior to the separation of plasma by centrifugation. Brains were extracted from the cranium and frozen on dry ice. Tissue samples were stored at approximately −80° C. prior to bioanalytical analysis.
Analyte plasma and brain concentrations were determined by LC/MS/MS.

Each structure is given as a SMILES string.

Turning to `O=C(NCCO)c1cccc2c1CCN2c1cc(Cc2cccc(C(F)(F)F)c2)ccn1` [Compound 13, N-(2-Hydroxyethyl)-1-(4-(3-(trifluoromethyl)benzyl)pyridin-2-yl)indoline-4-carboxamide], in the data set on male C57/BL6 mice (10 mg/kg P.O.), at 10 mg/kg the inhibition was 70%. The median effective dose (ED50) – broadly, the dose at which the effect has come halfway, by size or by number of responders – in the data set with male C57/BL6 mice (1 h, P.O., activity recorded for 60 minutes, read-out: ED50 (% Inhibition in Mouse Basal Locomotor Activity)) stood at 2.7 mg/kg. In addition, the amphetamine-stimulated locomotion entry with male Sprague-Dawley rats [1] is given as “blocked amphetamine-stimulated locomotion at several doses”. Besides, the “MK-801-induced disruption in % PPI in 'good performers'” value in the data set on male Sprague-Dawley rats [2] (MK-801 0.3 mg/kg SC) is listed as “reversed”. Besides, the “amphetamine-induced disruption in % PPI in 'good performers'” value in the data set with male Sprague-Dawley rats [2] (amphetamine 0.5 mg/kg SC) is given as “reversed”. In the data set with male Sprague Dawley rats (Compound 13 10 mg/kg P.O., at a low dose of haloperidol, FIG. 28B), the “haloperidol-induced increase in prolactin levels” value was “reversed”. For the same compound, the prolactin levels result in the data set with male Sprague Dawley rats (basal prolactin release, haloperidol 0.1 and 1 mg/kg P.O., Compound 13 1, 10, and 100 mg/kg P.O., FIG. 28A) was “decreased”. The “Brain/Plasma Ratio” value in data set [3] worked out at 3.51.

For the origin of these results see patent publication US9676758B2, “1-heteroaryl-indoline-4-carboxamides as modulators of GPR52 useful for the treatment or prevention of disorders related thereto” (Arena Pharmaceuticals, Inc., priority 2015, dated 2017).
